Measurements from US9504685B2, “Method for treating a pulmonary hypertension condition” (Gilead Sciences, Inc., priority 2006, dated 2016).

Tested on: subjects with PAH
Experiment: Example 2 (ARIES-1) placebo-controlled Phase III trial, efficacy
Assay type: in vivo, human
Settings: for Clinical worsening event: Atrial septostomy / Clinical worsening event: Death / Clinical worsening event: Escape criteria / Clinical worsening event: Hospitalization for PAH / Clinical worsening event: Lung transplantation / Clinical worsening event: Study discontinuation due to addition of PAH treatment / Clinical worsening: Total subjects with ≧1 event / subjects hospitalized for worsening right heart failure / subjects who had an event of clinical worsening: 12 weeks; for Change in 6MWD from baseline to Week 12, mean: ITT population; for geometric mean percent change in plasma BNP, decrease from baseline / geometric mean percent change in plasma ET-1, increase from baseline: Week 12
Description: The primary objective of this study was to determine the effect of ambrisentan on exercise capacity in subjects with pulmonary arterial hypertension (PAH). The secondary objectives of this study were to evaluate effects of ambrisentan on other clinical measures of PAH, as well as safety and tolerability of the study drug.
Study drug was provided in round, biconvex, oral tablets that were identical in appearance. Three strengths of active study drug containing 2.5 mg, 5 mg or 10 mg of ambrisentan were used in this study. All study drug was packaged in blister cards. Subjects were instructed to take study drug once daily (q.d.) by mouth (p.o.) in the morning, with or without food.
The maximum study duration was up to 14 weeks from the time of initial screening procedures to the final study visit (Week 12). Screening procedures were performed a maximum of 2 weeks prior to the first dose of study drug. The maximum duration of study drug treatment was 12 weeks.
Men and women, 18 years of age or older, with idiopathic PAH, PAH associated with CTD, e.g., mixed CTD, CREST syndrome, systemic sclerosis (scleroderma), overlap syndrome or systemic lupus erythematosus, or PAH associated with anorexigen use or HIV infection were enrolled in this study. Subjects were to have a documented mean PAP≧25 mmHg, PVR>3 mmHgL/min, and PCWP or LVEDP<15 mmHg. Subjects must have been able to walk a distance of at least 150 m but no more than 450 m during 2 consecutive 6MWTs to be eligible for inclusion in the study.
After a 2 week screening period, eligible subjects were stratified based on the underlying etiology of PAH (idiopathic or non-idiopathic) and were randomized to 1 of 3 treatment groups (placebo, 5 mg or 10 mg ambrisentan) in a ratio of 1:1:1. One blinded dose reduction was permitted during the 12-week treatment period in the event of study drug intolerance (e.g., 10 mg to 5 mg, 5 mg to 2.5 mg, placebo to placebo). Subjects received a daily dose of 2.5 mg ambrisentan only if they reduced from the 5 mg dose group. Subjects were assessed for efficacy and safety at monthly intervals.
Therefore, after a minimum treatment period of 4 weeks, subjects who met 2 or more of the following predefined early escape criteria may have been removed from the study: • (a) a decrease from baseline of at least 20% in 6MWD; • (b) an increase of 1 or more WHO functional class; • (c) worsening right ventricular failure (e.g., as indicated by increased jugular venous pressure, new or worsening hepatomegaly, ascites or peripheral edema); • (d) rapidly progressing cardiogenic, hepatic or renal failure; and/or • (e) refractory systolic hypotension (systolic blood pressure <85 mmHg).
The primary efficacy endpoint was change from baseline in 6MWD evaluated after 12 weeks of treatment compared to placebo.
The secondary efficacy endpoints included: • (a) time to clinical worsening of PAH, as defined by the time from randomization to the first occurrence of death, lung transplantation, hospitalization for PAH, atrial septostomy, study discontinuation due to addition of other PAH therapeutic agents, or study discontinuation due to 2 or more early escape criteria; • (b) change from baseline measured after 12 weeks of treatment compared to placebo in: • (i) WHO functional class; • (ii) SF-36® health survey physical functioning scale; • (iii) BDI immediately following exercise; and/or • (iv) an assessment of the safety and tolerability of the study drug; and • (c) change from baseline measured after 12 weeks of treatment compared to placebo in plasma levels of ET-1, BNP and cTnT. Safety Assessments
For the ITT population, subjects were considered as belonging to their randomized treatment group, regardless of the actual treatment received.
The primary efficacy endpoint was the change from baseline in 6MWD evaluated after 12 weeks of treatment compared to placebo, where the last observation was carried forward. […]

[1] = 5 mg once daily, baseline to Week 12
[2] = 10 mg once daily, baseline to Week 12

`COC(c1ccccc1)(c1ccccc1)[C@H](Oc1nc(C)cc(C)n1)C(=O)O` [ambrisentan] was tested, and the “placebo-adjusted improvement in mean 6MWD at Week 12” value (5 mg once daily) was “+30.6 m”, the “subjects at least maintaining their baseline WHO functional class at Week 12” value (5 mg once daily) was 98.5% and the “Clinical worsening event: Atrial septostomy” value (5 mg once daily) was 0 (0.0) subjects (% of ITT population). For the same compound, the “Clinical worsening event: Death” value (5 mg once daily) was 1 (1.5) subjects (% of ITT population), the “Clinical worsening event: Escape criteria” value (5 mg once daily) was 0 (0.0) subjects (% of ITT population) and the “Clinical worsening event: Hospitalization for PAH” value (5 mg once daily) was 2 (3.0) subjects (% of ITT population). For the same compound, the “Clinical worsening event: Lung transplantation” value (5 mg once daily) was 0 (0.0) subjects (% of ITT population), the “Clinical worsening event: Study discontinuation due to addition of PAH treatment” value (5 mg once daily) was 0 (0.0) subjects (% of ITT population) and the “Clinical worsening: Total subjects with ≧1 event” value (5 mg once daily) was 3 (4.5) subjects (% of ITT population). The “subjects hospitalized for worsening right heart failure” value (5 mg once daily) was 1 subjects, the “subjects who had an event of clinical worsening” value (5 mg once daily) was 3 subjects and the “Change in 6MWD from baseline to Week 12, mean” value (5 mg once daily) was “+22.8 meters”. For the same compound, the “geometric mean percent change in plasma BNP, decrease from baseline” value (5 mg once daily) was 30%, the “geometric mean percent change in plasma ET-1, increase from baseline” value (5 mg once daily) was 96% and the “Change in SF-36 Bodily pain, mean (SD)” value [1] was −1.43 ± 13.21. The “Change in SF-36 General health, mean (SD)” value [1] was “+0.08 ± 8.45”, the “Change in SF-36 Mental component summary, mean (SD)” value [1] was “+0.50 ± 10.50” and the “Change in SF-36 Mental health, mean (SD)” value [1] was “+0.81 ± 9.67”. The “Change in SF-36 Physical component summary, mean (SD)” value [1] was “+1.88 ± 8.68”, the “Change in SF-36 Physical functioning, mean (SD)” value [1] was “+3.86 ± 7.14” and the “Change in SF-36 Role-emotional, mean (SD)” value [1] was “+1.41 ± 13.95”. The “Change in SF-36 Role-physical, mean (SD)” value [1] was “+4.22 ± 10.52”, the “Change in SF-36 Social functioning, mean (SD)” value [1] was “+1.11 ± 13.63” and the “Change in SF-36 Vitality, mean (SD)” value [1] was “+2.38 ± 10.06”. The “Change in WHO functional class: +1 class” value [1] was 1 (1.5) subjects (% of ITT population), the “Change in WHO functional class: +2 classes” value [1] was 0 (0.0) subjects (% of ITT population) and the “Change in WHO functional class: no change” value [1] was 47 (70.1) subjects (% of ITT population). For the same compound, the “Change in WHO functional class: −1 class” value [1] was 18 (26.9) subjects (% of ITT population), the “Change in WHO functional class: −2 classes” value [1] was 1 (1.5) subjects (% of ITT population) and the “placebo-adjusted improvement in mean 6MWD at Week 12” value (10 mg once daily) was “+51.4 m”. For the same compound, the “subjects at least maintaining their baseline WHO functional class at Week 12” value (10 mg once daily) was 95.5%, the “Clinical worsening event: Atrial septostomy” value (10 mg once daily) was 0 (0.0) subjects (% of ITT population) and the “Clinical worsening event: Death” value (10 mg once daily) was 1 (1.5) subjects (% of ITT population). The “Clinical worsening event: Escape criteria” value (10 mg once daily) was 2 (3.0) subjects (% of ITT population), the “Clinical worsening event: Hospitalization for PAH” value (10 mg once daily) was 2 (3.0) subjects (% of ITT population) and the “Clinical worsening event: Lung transplantation” value (10 mg once daily) was 0 (0.0) subjects (% of ITT population). The “Clinical worsening event: Study discontinuation due to addition of PAH treatment” value (10 mg once daily) was 1 (1.5) subjects (% of ITT population), the “Clinical worsening: Total subjects with ≧1 event” value (10 mg once daily) was 3 (4.5) subjects (% of ITT population) and the “subjects hospitalized for worsening right heart failure” value (10 mg once daily) was 1 subjects. For the same compound, the “subjects who had an event of clinical worsening” value (10 mg once daily) was 3 subjects, the “Change in 6MWD from baseline to Week 12, mean” value (10 mg once daily) was “+43.6 meters” and the “geometric mean percent change in plasma BNP, decrease from baseline” value (10 mg once daily) was 45%. For the same compound, the “geometric mean percent change in plasma ET-1, increase from baseline” value (10 mg once daily) was 48%, the “Change in SF-36 Bodily pain, mean (SD)” value [2] was “+2.26 ± 12.22” and the “Change in SF-36 General health, mean (SD)” value [2] was “+3.25 ± 8.81”. The “Change in SF-36 Mental component summary, mean (SD)” value [2] was “+2.11 ± 13.17”, the “Change in SF-36 Mental health, mean (SD)” value [2] was “+1.55 ± 12.66” and the “Change in SF-36 Physical component summary, mean (SD)” value [2] was “+4.79 ± 7.90”. The “Change in SF-36 Physical functioning, mean (SD)” value [2] was “+4.52 ± 7.16”, the “Change in SF-36 Role-emotional, mean (SD)” value [2] was “+2.98 ± 17.37” and the “Change in SF-36 Role-physical, mean (SD)” value [2] was “+6.67 ± 10.35”.
